m = 2'-O-methyl; r = 2'-OH (RNA)
Target: T1, TLR9 (Homo sapiens, UniProt Q9NR96)
T1 construct: these experiments were repeated in human PBMC cultures; endogenous in cells; host or cells: primary human PBMCs
T1 sequence (Q9NR96 26-1032): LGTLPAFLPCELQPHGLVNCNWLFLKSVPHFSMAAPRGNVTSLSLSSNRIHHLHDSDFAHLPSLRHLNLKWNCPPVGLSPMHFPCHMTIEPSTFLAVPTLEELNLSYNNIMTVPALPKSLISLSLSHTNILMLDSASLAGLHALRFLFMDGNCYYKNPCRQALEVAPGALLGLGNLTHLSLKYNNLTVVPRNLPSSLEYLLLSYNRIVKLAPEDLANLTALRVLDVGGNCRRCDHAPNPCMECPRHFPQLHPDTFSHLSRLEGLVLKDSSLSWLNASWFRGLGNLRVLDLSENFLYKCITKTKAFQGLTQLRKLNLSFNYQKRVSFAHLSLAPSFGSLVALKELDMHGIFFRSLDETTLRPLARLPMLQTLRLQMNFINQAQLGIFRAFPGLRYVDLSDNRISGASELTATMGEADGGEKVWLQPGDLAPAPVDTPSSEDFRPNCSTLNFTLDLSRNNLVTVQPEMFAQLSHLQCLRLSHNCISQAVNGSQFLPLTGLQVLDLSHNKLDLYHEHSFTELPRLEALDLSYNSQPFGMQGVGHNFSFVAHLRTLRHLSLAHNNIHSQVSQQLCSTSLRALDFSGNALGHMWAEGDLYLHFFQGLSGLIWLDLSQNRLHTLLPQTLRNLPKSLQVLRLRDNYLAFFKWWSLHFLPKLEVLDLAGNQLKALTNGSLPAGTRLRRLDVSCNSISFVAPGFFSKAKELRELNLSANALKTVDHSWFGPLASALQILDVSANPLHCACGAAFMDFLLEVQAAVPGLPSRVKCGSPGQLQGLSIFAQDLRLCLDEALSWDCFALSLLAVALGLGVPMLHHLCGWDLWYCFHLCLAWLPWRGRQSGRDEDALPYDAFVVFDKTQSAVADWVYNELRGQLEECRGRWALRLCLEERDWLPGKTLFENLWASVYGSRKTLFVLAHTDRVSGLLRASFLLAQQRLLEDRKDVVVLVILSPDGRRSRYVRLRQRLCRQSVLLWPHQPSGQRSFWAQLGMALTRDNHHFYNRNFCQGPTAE
Experiment: CpG ODN (TLR9 agonist)-induced cytokine production in human PBMCs
Type: cell-based
Description: All RNA molecules used in this study were heated at 90° C. for 3 min. and then placed at 37° C. for 60 min. Non-denaturing PAGE analysis on a 20% polyacrylamide gel was performed to confirm that ssRNA molecules were intact and that no duplexes had formed upon heating. The RNA molecules were encapsulated in a SNALP formulation comprising PEG-cDMA:DLinDMA:cholesterol:DSPC in a 2:40:48:10 mol % ratio (2:40 SNALP), prepared using a syringe press process.
Fresh human peripheral blood mononuclear cells (PBMCs) were isolated and seeded at about 3×10^5 cells/well in a total volume of 180 μl. Next, 20 μl of the appropriate SNALP diluted in PBS or 10 μl of naked TLR agonist were added to the PBMCs. For time course experiments, PBMCs were pretreated with UmodS ssRNA or a control and the appropriate naked TLR agonist was added at 0, 0.5, or 2 hours after pretreatment. When the SNALP and naked TLR agonist were added separately, the SNALP was added first followed by the naked TLR agonist. At t=24 hr., the cell supernatant was harvested and IFN-α and/or IL-6 levels were determined using ELISA.
Lipid Encapsulation of RNA and ODN. RNA or ODN were encapsulated in liposomes by a process of spontaneous vesicle formation as described in Judge et al., supra, and Jeffs et al., Pharm. […]
Cytokine ELISA. All cytokines were quantified using sandwich ELISA kits according to the manufacturer's instructions. […]

## Luc UmodS: Luc sense strand ssRNA with 2′OMe at uridines: GAmUmUAmUGmUCCGGmUmUAmUGmUAUU (sense GAUUAUGUCCGGUUAUGUAUU; sugars from the 5' end rrmmrmrmrrrrmmrmrmrrr, backbone not given here)
Human PBMCs pretreated with SNALP-encapsulated ssRNA
  IL-6 levels induced by naked ODN2006 (TLR9 agonist, phosphorothioate CpG Type B): no reduction
Human PBMCs, SNALP-encapsulated ssRNA plus naked ODN
  level of IFN-α induced by naked ODN2216 (TLR9 agonist, phosphorothioate CpG Type A): increased
